Measured values from US12404289B2 (Gilead Sciences, Inc., priority 2020, dated 2025).
Like-named read-outs stand apart in the source and are kept apart here.

Columns and labels:
Type in all cases: cell-based
[1] = system: Recombinant respiratory syncytial virus expressing the firefly luciferase protein (RSV-Fluc); assay: microbe, parasite or virus in culture; conditions: Table 4
SARS-CoV-2 = SARS-CoV-2 antiviral assay (A549-hACE2, Nano luciferase); conditions: A549-hACE2 cells, SARS-CoV2-Nano, MOI 0.025, 48 h, Table 4, read-out: EC50 SARS CoV2
[2] = system: Respiratory syncytial virus (RSV) strain A2; assay: Hep-2 RSV2 384-well assay (EC50-HEP2-384); conditions: HEp-2 cells, RSV A2, MOI=4, 4 days
[3] = system: Respiratory syncytial virus recombinant with luciferase (RSV-Luc5); assay: microbe, parasite or virus in culture; conditions: Table 3
[4] = system: Respiratory syncytial virus (RSV) strain A2; assay: RSV antiviral assay (HEp-2, 96 well); conditions: read-out: EC50 RSV HEP2 96; HEp-2 cells, RSV A2, MOI=4, 4 days, 96 well; Table 3
[5] = human respiratory syncytial virus, NHBE, 72 h, read-out: EC50 RSVFluc NHBE 96, NHBE cells, RSV-Fluc, MOI of 0.1, three days, 96 well
[6] = Severe acute respiratory syndrome coronavirus 2, 48 h
[7] = human respiratory syncytial virus, HEp-2, 96 h, Table 3
[8] = read-out: EC50 RSVFluc NHBE 96, NHBE cells, RSV-Fluc, MOI of 0.1, three days, 96 well
[9] = human respiratory syncytial virus, HEp-2, 72 h, read-out: EC50 RSVFluc-Hep2 384, HEp-2 cells, RSV-Luc5, MOI=0.5, 3 days, 384 well

Compound | EC50 [1, 5] [µM] | EC50 (SARS-CoV-2; [6]) [µM] | EC50 [2, 7] [µM] | EC50 [1, 8] [µM] | EC50 (SARS-CoV-2) [µM] | also measured
C[C@H](NP(=O)(OC[C@H]1O[C@@](C#N)(c2ccc3c(N)ncnn23)[C@H](O)[C@@H]1O)Oc1ccc(C(C)(C)C)cc1)C(=O)OC1CC(C)(C)C1 (stereo partly drawn) [Example 93, 3,3-dimethylcyclobutyl ((((2R,3S,4R,5R)-5-(4-aminopyrrolo[2,1-f][1,2,4]triazin-7-yl)-5-cyano-3,4-dihydroxytetrahydrofuran-2-yl)methoxy)(4-(tert-butyl)phenoxy)phosphoryl)-L-alaninate] | 0.00443 | 0.123 | 0.0676 | – | – | –
CCC(=O)O[C@H]1[C@@H](OC(=O)CC)[C@](C#N)(c2ccc3c(N)ncnn23)O[C@@H]1COP(=O)(N[C@@H](C)C(=O)OC1CCC1)Oc1ccc(C(C)(C)C)cc1 (single isomer, unassigned) [Example 32b] | – | – | – | 0.0107 | 0.0597 | EC50 ([2]; Table 3): 0.03 µM
C[C@H](NP(=O)(OC[C@H]1O[C@@](C#N)(c2ccc3c(N)ncnn23)[C@H](O)[C@@H]1O)Oc1ccc(Cl)cc1)C(=O)OC1CCCCCCC1 (single isomer, unassigned) [Example 174a] | – | – | – | – | – | EC50 ([3]; read-out: EC50 RSVFluc-Hep2 384, HEp-2 cells, RSV-Luc5, MOI=0.5, 3 days, 384 well): 0.00709 µM
CCOC(=O)[C@H](C)NP(=O)(OC[C@H]1O[C@@](C#N)(c2ccc3c(N)ncnn23)[C@H](OC(C)=O)[C@@H]1OC(C)=O)Oc1ccc(C23CC(C2)C3)cc1 (single isomer, unassigned) [Example 42b] | – | – | – | 0.008 | 0.0513 | EC50 ([2]; Table 3): 0.0688 µM
CCOC(=O)[C@H](C)NP(=O)(OC[C@H]1O[C@@](C#N)(c2ccc3c(N)ncnn23)[C@H](OC(=O)C(C)C)[C@@H]1OC(=O)C(C)C)Oc1ccc(C(C)(C)C)cc1 (single isomer, unassigned) [Example 18a] | 0.0222 | 0.312 | – | – | – | EC50 ([2]; human respiratory syncytial virus, HEp-2, 96 h, Table 1): 0.0654 µM
CCC(CC)COC(=O)[C@H](C)NP(=O)(OC[C@H]1O[C@@](C#N)(c2ccc3c(N)ncnn23)[C@H](OC(=O)C(C)C)[C@@H]1OC(=O)C(C)C)Oc1ccc(C(C)(C)C)c2ccccc12 (stereo partly drawn) [Example 173, (2R,3R,4R,5R)-2-(4-aminopyrrolo[2,1-f][1,2,4]triazin-7-yl)-5-(((((4-(tert-butyl)naphthalen-1-yl)oxy)(((S)-1-(2-ethylbutoxy)-1-oxopropan-2-yl)amino)phosphoryl)oxy)methyl)-2-cyanotetrahydrofuran-3,4-diyl bis(2-methylpropanoate)] | – | – | – | – | – | EC50 [3, 9]: 0.798 µM
CC(C)C(=O)O[C@H]1[C@@H](OC(=O)C(C)C)[C@](C#N)(c2ccc3c(N)ncnn23)O[C@@H]1COP(=O)(N[C@@H](C)C(=O)OCC1CC1)Oc1ccc(C(C)(C)C)cc1 (stereo partly drawn) [Example 104a, (2R,3R,4R,5R)-2-(4-aminopyrrolo[2,1-f][1,2,4]triazin-7-yl)-5-((((4-(tert-butyl)phenoxy)(((S)-1-(cyclopropylmethoxy)-1-oxopropan-2-yl)amino)phosphoryl)oxy)methyl)-2-cyanotetrahydrofuran-3,4-diyl bis(2-methylpropanoate)] | 0.0108 | 0.234 | 0.039 | – | – | –
CCC(CC)COC(=O)[C@H](C)NP(=O)(OC[C@H]1O[C@@](C#N)(c2ccc3c(N)ncnn23)[C@H](O)[C@@H]1O)Oc1ccc(C(C)(C)C)c2ccccc12 (stereo partly drawn) [Example 170, 2-ethylbutyl ((((2R,3S,4R,5R)-5-(4-aminopyrrolo[2,1-f][1,2,4]triazin-7-yl)-5-cyano-3,4-dihydroxytetrahydrofuran-2-yl)methoxy)((4-(tert-butyl)naphthalen-1-yl)oxy)phosphoryl)-L-alaninate] | – | – | – | – | – | EC50 [3, 9]: 1.01 µM
CC(=O)O[C@H]1[C@@H](OC(C)=O)[C@](C#N)(c2ccc3c(N)ncnn23)O[C@@H]1COP(=O)(N[C@@H](C)C(=O)OC1CCC1)Oc1ccc(C(C)(C)C)cc1 (single isomer, unassigned) [Example 33b] | – | – | – | 0.0122 | 0.231 | EC50 ([2]; Table 3): 0.0272 µM
CCC(=O)O[C@H]1[C@@H](OC(=O)CC)[C@](C#N)(c2ccc3c(N)ncnn23)O[C@@H]1COP(=O)(N[C@@H](C)C(=O)OC1CCC1)Oc1ccc(C(C)(C)C)cc1 (single isomer, unassigned) [Example 32a] | 0.0167 | – | 0.0254 | – | 0.157 | –
C[C@H](NP(=O)(OC[C@H]1O[C@@](C#N)(c2ccc3c(N)ncnn23)[C@H](O)[C@@H]1O)Oc1ccc(C(C)(C)C)cc1)C(=O)OC1CCC1 (single isomer, unassigned) [Example 31a] | 0.00633 | 0.0923 | 0.0292 | – | – | –
CCC(C)(C)CCOC(=O)[C@H](C)NP(=O)(OC[C@H]1O[C@@](C#N)(c2ccc3c(N)ncnn23)[C@H](OC(C)=O)[C@@H]1OC(C)=O)Oc1ccccc1 (stereo partly drawn) [Example 106b, (2R,3R,4R,5R)-2-(4-aminopyrrolo[2,1-f][1,2,4]triazin-7-yl)-2-cyano-5-((((((S)-1-((3,3-dimethylpentyl)oxy)-1-oxopropan-2-yl)amino)(phenoxy)phosphoryl)oxy)methyl)tetrahydrofuran-3,4-diyl Diacetate] | 0.0122 | – | – | – | 0.0978 | EC50 ([2]; Table 3): 0.0342 µM
CC(=O)O[C@H]1[C@@H](OC(C)=O)[C@](C#N)(c2ccc3c(N)ncnn23)O[C@@H]1COP(=O)(N[C@@H](C)C(=O)OC1CCC1)Oc1ccc(C(C)(C)C)cc1 (single isomer, unassigned) [Example 33a] | 0.00906 | 0.134 | 0.0227 | – | – | –
CCOC(=O)[C@H](C)NP(=O)(OC[C@H]1O[C@@](C#N)(c2ccc3c(N)ncnn23)[C@H](OC(=O)C(C)C)[C@@H]1OC(=O)C(C)C)Oc1ccc(C(C)(C)C)cc1 (single isomer, unassigned) [Example 18b] | – | – | – | 0.0151 | 0.332 | EC50 ([2]; Table 1): 0.075 µM
CC(C)C(=O)O[C@H]1[C@@H](OC(=O)C(C)C)[C@](C#N)(c2ccc3c(N)ncnn23)O[C@@H]1COP(=O)(N[C@@H](C)C(=O)OC1CCC1)Oc1ccccc1 (single isomer, unassigned) [Example 21a] | – | – | – | 0.0374 | 0.125 | EC50 ([2]; Table 1): 0.092 µM
CCC(=O)O[C@H]1[C@@H](OC(=O)CC)[C@](C#N)(c2ccc3c(N)ncnn23)O[C@@H]1COP(=O)(N[C@@H](C)C(=O)OC1CC2(CCC2)C1)Oc1cccc2ccccc12 (single isomer, unassigned) [Example 87b] | 0.00736 | – | 0.0449 | – | 0.0163 | EC50 [4]: 0.0083 µM
CC(C)C(=O)O[C@H]1[C@@H](OC(=O)C(C)C)[C@](C#N)(c2ccc3c(N)ncnn23)O[C@@H]1COP(=O)(N[C@@H](C)C(=O)OC1CCC1)Oc1ccccc1 (single isomer, unassigned) [Example 21b] | – | – | – | 0.0331 | 0.191 | EC50 ([2]; Table 1): 0.0347 µM
CCOC(=O)[C@H](C)NP(=O)(OC[C@H]1O[C@@](C#N)(c2ccc3c(N)ncnn23)[C@H](OC(C)=O)[C@@H]1OC(C)=O)Oc1ccc(C23CC(C2)C3)cc1 (single isomer, unassigned) [Example 42a] | 0.00956 | – | 0.0683 | – | 0.121 | –
COC(C)(C)COC(=O)[C@H](C)NP(=O)(OC[C@H]1O[C@@](C#N)(c2ccc3c(N)ncnn23)[C@H](OC(=O)C(C)C)[C@@H]1OC(=O)C(C)C)Oc1cccc2ccccc12 (stereo partly drawn) [Example 133, (2R,3R,4R,5R)-2-(4-aminopyrrolo[2,1-f][1,2,4]triazin-7-yl)-2-cyano-5-((((((S)-1-(2-methoxy-2-methylpropoxy)-1-oxopropan-2-yl)amino)(naphthalen-1-yloxy)phosphoryl)oxy)methyl)tetrahydrofuran-3,4-diyl bis(2-methylpropanoate)] | 0.0138 | 0.0369 | 0.0336 | – | – | –
